Molecules are shown by their SMILES. Read-outs that look alike come from different tables or passages of the source.

The source of these data is US9701669B2, “Preparation and use of 7a-amide substituted- 6,6-difluoro bicyclic himbacine derivatives as PAR-1 receptor antagonists” (Merck Sharp & Dohme Corp., priority 2013, dated 2017).

In one data set the target is PAR-1 receptor (Homo sapiens (Human), UniProt P25116). The data set is described as follows: PAR-1 FLIPR Assay. Format: cell-based. The following applies: for IC50: HEK 293 cells, calcium signal after PAR-1 selective receptor-activating peptide at 80% activation. On the procedure: This assay measures the potency of the inventive compounds as PAR-1 receptor antagonists.
PAR-1 receptor, sequence (P25116 22-425): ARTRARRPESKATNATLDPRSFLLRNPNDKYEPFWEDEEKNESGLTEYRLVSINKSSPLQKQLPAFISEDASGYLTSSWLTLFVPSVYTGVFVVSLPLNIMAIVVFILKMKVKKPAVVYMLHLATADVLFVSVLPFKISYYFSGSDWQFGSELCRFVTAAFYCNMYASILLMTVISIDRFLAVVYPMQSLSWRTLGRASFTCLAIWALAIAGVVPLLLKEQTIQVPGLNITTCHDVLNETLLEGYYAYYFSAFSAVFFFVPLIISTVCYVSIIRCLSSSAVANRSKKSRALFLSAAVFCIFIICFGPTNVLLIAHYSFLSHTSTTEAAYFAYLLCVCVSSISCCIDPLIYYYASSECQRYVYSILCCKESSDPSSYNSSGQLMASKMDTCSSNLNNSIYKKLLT
Frozen HEK 293 Cells were plated in 384-well PDL coated plates at 12000 cells/well in 50 uL of DMEM media containing 10% FBS, pen/strep/L-Glutamine and non-essential amino acids, incubated overnight at 37° C./5% CO2. Media was then removed from the cells, incubated with 33 ul of Calcium-5 dye in assay buffer (Hank's buffer containing 20 mM HEPES, 0.04% Chaps and 2.5 mM Probenecid) for 60 minutes at 37° C. 2 uL of varying concentrations of compound in 40% DMSO in assay buffer (final DMSO concentration is 2.3%) were then added to the cells and incubated at 25° C. for 30 minutes. […] The range of peptide was from 1.5-3 μM. The final volume was 40 uL/well, with 2% DMSO. […] The data were analyzed by taking the peak signal over a portion of the range of the 60 scans and dividing this signal by the minimum signal for that same range.

Data set [1] concerns the target human Ether-á-go-go Related Gene (hERG) ion channel (Homo sapiens (Human), UniProt Q12809). As to the kind of experiment: MK-499 Filter Binding Assay. On the procedure:
This assay is used to evaluate the potential of a compound to cause drug-induced long QT syndrome.
Drug cardiac arrhythmia is an important safety concern for pharmaceutical development and health regulatory authorities.
Then, 30 μL wash buffer (10 mM HEPES/NaOH, pH 7.4, 130 mM NaCl, 2 mM MgCl2, 1 mM CaCl2) equilibrated to RT were added to each well of the assay plate and subsequently transferred to the filter plate. The assay mixture was aspirated through the filter plate using a Biotek ELx405™ washer. The filter plate was washed twice with 100 μl cold wash buffer per wash and well and then dried in a drying oven for at least 75 min at 55° C. Afterwards, the bottom of each filter plate was heat sealed with a solid foil seal, then 10 μL of Microscint™ 0 (Perkin Elmer) were added to each well of the filter plate and finally, the top of each filter plate was sealed with a clear seal. The plates were stored for at least 20 min in a MicroBeta2 reader (Perkin Elmer) before they are counted (60 sec/well).

[2] abbreviates: membranes from HEK293 cell line expressing hERG, [35S]MK-0499 radioligand, read-out: MK499 IC50.

human Ether-á-go-go Related Gene (hERG) ion channel, sequence (Q12809 whole entry): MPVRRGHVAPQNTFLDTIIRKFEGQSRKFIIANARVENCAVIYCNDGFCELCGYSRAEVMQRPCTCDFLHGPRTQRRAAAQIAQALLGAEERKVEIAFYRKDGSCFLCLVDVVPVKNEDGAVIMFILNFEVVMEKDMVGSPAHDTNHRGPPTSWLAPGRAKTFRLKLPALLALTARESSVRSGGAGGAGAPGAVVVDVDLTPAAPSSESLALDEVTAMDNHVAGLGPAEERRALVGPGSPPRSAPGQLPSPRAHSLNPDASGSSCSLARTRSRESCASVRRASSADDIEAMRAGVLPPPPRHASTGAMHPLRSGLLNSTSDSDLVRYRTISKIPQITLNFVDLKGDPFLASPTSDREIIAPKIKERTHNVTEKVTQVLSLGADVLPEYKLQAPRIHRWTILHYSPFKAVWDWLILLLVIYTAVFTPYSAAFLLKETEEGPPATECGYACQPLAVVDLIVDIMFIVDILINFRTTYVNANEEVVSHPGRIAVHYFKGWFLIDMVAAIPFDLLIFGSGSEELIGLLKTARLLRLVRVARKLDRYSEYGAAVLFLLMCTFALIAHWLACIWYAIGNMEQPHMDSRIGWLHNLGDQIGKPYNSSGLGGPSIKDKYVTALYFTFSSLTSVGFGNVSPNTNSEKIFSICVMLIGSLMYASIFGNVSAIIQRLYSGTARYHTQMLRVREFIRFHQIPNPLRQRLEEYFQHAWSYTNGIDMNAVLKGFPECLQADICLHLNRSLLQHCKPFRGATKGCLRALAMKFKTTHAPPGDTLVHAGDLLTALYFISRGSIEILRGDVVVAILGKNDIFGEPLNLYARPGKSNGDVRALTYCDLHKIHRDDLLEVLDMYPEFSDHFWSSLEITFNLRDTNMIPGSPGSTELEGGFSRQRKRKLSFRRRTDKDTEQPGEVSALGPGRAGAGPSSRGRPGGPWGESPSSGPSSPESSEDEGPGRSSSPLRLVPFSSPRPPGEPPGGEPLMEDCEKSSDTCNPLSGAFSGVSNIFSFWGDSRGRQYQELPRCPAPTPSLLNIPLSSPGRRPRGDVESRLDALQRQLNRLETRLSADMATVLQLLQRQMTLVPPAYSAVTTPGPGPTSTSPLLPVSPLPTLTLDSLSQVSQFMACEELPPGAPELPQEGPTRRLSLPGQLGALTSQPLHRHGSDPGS

Turning to `Cc1cccc(-c2ccc(/C=C/[C@@H]3[C@@H]4[C@@H](C)OC(=O)[C@]4(C(N)=O)CC(F)(F)[C@H]3C)nc2)c1F` [Example 2, (1R,3aR,6S,7R, 7aS)-5,5-difluoro-7-((E)-2-(5-(2-fluoro-3-methylphenyl)pyridin-2-yl)vinyl)-1,6-dimethyl-3-oxooctahydro-isobenzofuran-3a-carboxamide], the IC50 was found to be 3.8 nM at PAR-1 receptor and 13000 nM in data set [1] (setting [2]).
The corresponding values for `C[C@H]1OC(=O)[C@]2(C(N)=O)CC(F)(F)[C@@H](C)[C@H](/C=C/c3ccc(-c4cccc5c4OC(F)(F)O5)cn3)[C@H]12` [Example 10, (1R,3aR,6S,7R,7aS)-7-((E)-2-(5-(2,2-difluorobenzo[d][1,3]dioxol-4-yl)pyridin-2-yl)vinyl)-5,5-difluoro-1,6-dimethyl-3-oxooctahydroisobenzofuran-3a-carboxamide] are 4.49 nM and 15400 nM.
The corresponding values for `Cc1c(F)cccc1-c1ccc(/C=C/[C@@H]2[C@@H]3[C@@H](C)OC(=O)[C@]3(C(N)=O)CC(F)(F)[C@H]2C)nc1` [Example 3, (1R,3aR, 6S,7R,7aS)-5,5-difluoro-7-((E)-2-(5-(3-fluoro-2-methylphenyl)pyridin-2-yl)vinyl)-1,6-dimethyl-3-oxooctahydro-isobenzofuran-3a-carboxamide] are 1.37 nM and 12000 nM.
As for `C[C@H]1OC(=O)[C@]2(CC(N)=O)CC(F)(F)[C@@H](C)[C@H](/C=C/c3ccc(-c4cccnc4C#N)cn3)[C@H]12` [Example 17, 2-((1R,3aR,6S, 7R,7aS)-7-((E)-2-(2′-cyano-[3,3′-bipyridin]-6-yl)vinyl)-5,5-difluoro-1,6-dimethyl-3-oxooctahydro-isobenzofuran-3a-yl)acetamide], the IC50 at PAR-1 receptor turned out to be 21.2 nM.
Same read-out and setting: the value for `C[C@H]1OC(=O)[C@]2(C(N)=O)CC(F)(F)[C@@H](C)[C@H](/C=C/c3ccc(-c4ccccc4C#N)cn3)[C@H]12` [Example 1, (1R,3aR,6S,7R,7aS)-7-((E)-2-(5-(2-cyanophenyl)pyridin-2-yl)vinyl)-5,5-difluoro-1,6-dimethyl-3-oxooctahydroisobenzofuran-3a-carboxamide] was 2.93 nM.
With `C[C@H]1OC(=O)[C@]2(C(N)=O)CC(F)(F)[C@@H](C)[C@H](/C=C/c3ccc(-c4cccnc4C#N)cn3)[C@H]12` [Example 11], the results for the IC50 (on PAR-1 receptor; in data set [1] (setting [2])) were 9.68 nM and 60000 nM, respectively.
With `C[C@H]1OC(=O)[C@]2(N3CC(C(N)=O)C3)CC(F)(F)[C@@H](C)[C@H](/C=C/c3ccc(-c4cccc(F)c4)cn3)[C@H]12` [Example 13, 1-((1R,3aS,6S, 7R,7aS)-5,5-difluoro-7-((E)-2-(5-(3-fluorophenyl)pyridin-2-yl)vinyl)-1,6-dimethyl-3-oxo-octahydro-isobenzofuran-3a-yl)azetidine-3-carboxamide], the concentration for half-maximal inhibition (IC50) on PAR-1 receptor was 13.9 nM.
Regarding `C[C@H]1OC(=O)[C@]2(N3CC(C(N)=O)C3)CC(F)(F)[C@@H](C)[C@H](/C=C/c3ccc(-c4ccccc4C#N)cn3)[C@H]12` [Example 12, 1-((1R,3aS,6S,7R,7aS)-7-((E)-2-(5-(2-cyanophenyl)pyridin-2-yl)vinyl)-5,5-difluoro-1,6-dimethyl-3-oxo-octahydroisobenzofuran-3a-yl)azetidine-3-carboxamide], the IC50 at PAR-1 receptor was determined as 5.7 nM; in data set [1] (setting [2]) it was 16300 nM.
For `C[C@H]1OC(=O)[C@]2(C(C)(C)C(N)=O)CC(F)(F)[C@@H](C)[C@H](/C=C/c3ccc(-c4ccccc4C#N)cn3)[C@H]12` [Example 21, 2-((1R,3aR,6S,7R,7aS)-7-((E)-2-(5-(2-cyanophenyl)pyridin-2-yl)vinyl)-5,5-difluoro-1,6-dimethyl-3-oxooctahydroisobenzofuran-3a-yl)-2-methylpropanamide], the IC50 at PAR-1 receptor amounted to 17.1 nM.
Turning to `C[C@H]1OC(=O)[C@]2(CC(N)=O)CC(F)(F)[C@@H](C)[C@H](/C=C/c3ccc(-c4ccccc4C#N)cn3)[C@H]12` [Example 5, 2-((1R,3aR,6S,7R,7aS)-7-((E)-2-(5-(2-cyanophenyl)pyridin-2-yl)vinyl)-5,5-difluoro-1,6-dimethyl-3-oxooctahydroisobenzofuran-3a-yl)acetamide], the IC50 at PAR-1 receptor was 3.14 nM.
For `COc1ncccc1-c1ccc(/C=C/[C@@H]2[C@@H]3[C@@H](C)OC(=O)[C@]3(CC(N)=O)CC(F)(F)[C@H]2C)nc1` [Example 16, 2-((1R,3aR,6S, 7R,7aS)-5,5-difluoro-7-((E)-2-(2′-methoxy-[3,3′-bipyridin]-6-yl)vinyl)-1,6-dimethyl-3-oxooctahydro-isobenzofuran-3a-yl)acetamide], the IC50 on PAR-1 receptor is 104 nM; in data set [1] (setting [2]), 25900 nM.
With `C[C@H]1OC(=O)[C@]2(CCC(N)=O)CC(F)(F)[C@@H](C)[C@H](/C=C/c3ccc(-c4cccnc4C#N)cn3)[C@H]12` [Example 15, 3-((1R,3aR,6S, 7R,7aS)-7-((E)-2-(2′-cyano-[3,3′-bipyridin]-6-yl)vinyl)-5,5-difluoro-1,6-dimethyl-3-oxooctahydro-isobenzofuran-3a-yl)propanamide], the IC50 at PAR-1 receptor was 6.34 nM; in data set [1] (human, pH 7.4) it was 60000 nM.
Consider `C[C@H]1OC(=O)[C@]2(C(O)C(N)=O)CC(F)(F)[C@@H](C)[C@H](/C=C/c3ccc(-c4ccccc4C#N)cn3)[C@H]12` (mixture of isomers) [Example 20, (S and R)-2-((1R,3aR,6S, 7R,7aS)-7-((E)-2-(5-(2-cyanophenyl)pyridin-2-yl)vinyl)-5,5-difluoro-1,6-dimethyl-3-oxooctahydro-isobenzofuran-3a-yl)-2-hydroxyacetamide], for which the IC50 on PAR-1 receptor turned out to be 4.41 nM.
On the same count and under the same terms, the value for `C[C@H]1OC(=O)[C@]2(NCC(N)=O)CC(F)(F)[C@@H](C)[C@H](/C=C/c3ccc(-c4ccccc4C#N)cn3)[C@H]12` [Example 18, 2-(((1R,3aS,6S,7R,7aS)-7-((E)-2-(5-(2-cyanophenyl)pyridin-2-yl)vinyl)-5,5-difluoro-1,6-dimethyl-3-oxooctahydroisobenzofuran-3a-yl)amino)acetamide] was 4.3 nM; that for `C[C@H]1OC(=O)[C@]2(CCC(N)=O)CC(F)(F)[C@@H](C)[C@H](/C=C/c3ccc(-c4ccccc4C#N)cn3)[C@H]12` [Example 14, 3-((1R,3aR,6S,7R,7aS)-7-((E)-2-(5-(2-cyanophenyl)pyridin-2-yl)vinyl)-5,5-difluoro-1,6-dimethyl-3-oxooctahydroisobenzofuran-3a-yl)propanamide] was 4.4 nM.
The compound `Cc1nc(/C=C/[C@@H]2[C@@H]3[C@@H](C)OC(=O)[C@]3(C(N)=O)CC(F)(F)[C@H]2C)ccc1-c1ccccc1C#N` [Example 4, (1R,3aR,6S,7R, 7aS)-7-((E)-2-(5-(2-cyanophenyl)-6-methylpyridin-2-yl)vinyl)-5,5-difluoro-1,6-dimethyl-3-oxooctahydro-isobenzofuran-3a-carboxamide] returned an IC50 in data set [1] (human, pH 7.4) of 60000 nM.
For `COC(C(N)=O)[C@@]12CC(F)(F)[C@@H](C)[C@H](/C=C/c3ccc(-c4ccccc4C#N)cn3)[C@@H]1[C@@H](C)OC2=O` (mixture of isomers) [Example 19, (S and R)-2-((1R,3aR,6S,7R,7aS)-7-((E)-2-(5-(2-cyanophenyl)pyridin-2-yl)vinyl)-5,5-difluoro-1,6-dimethyl-3-oxooctahydroisobenzofuran-3a-yl)-2-methoxyacetamide], the PAR-1 FLIPR IC50 on PAR-1 receptor (unit printed as 'mn' (apparent misprint of nM), same assay as E1, unit of the source corrected) came out at 3.02 nM. The IC50 in data set [1] (setting [2]) worked out at 47700 nM.
